Experimental findings from patent US10570129B2 (Zoetis Services LLC, priority 2015, dated 2020) are described below.

Bounds are passed on as bounds.

Assay [1] concerns Haemonchus contortus L3. As to the kind of experiment: microbe, parasite or virus in culture. The assay is classed as cell-based. The note with it: Haemonchus contortus, 96 h, read-out: HcL3 Minimal Effective Concentration (MEC).
Assay [2] relates to D. immitis microfilariae. Nature of the assay: Dirofilaria immitis, microfilariae (DiMF) in vitro motility assay. The assay is classed as cell-based. The note with it: Dirofilaria immitis, 72 h, read-out: DiMF minimally effective dose (MEC).

On to `O=C(NCc1ccnc(F)c1)n1c2c(c3cc(OC(F)(F)F)ccc31)CN(C/C=C/c1ccc(F)cc1F)CC2` [Example 403, (E)-2-(3-(2,4-difluorophenyl)allyl)-N-((2-fluoropyridin-4-yl)methyl)-8-(trifluoromethoxy)-1,2,3,4-tetrahydro-5H-pyrido[4,3-b]indole-5-carboxamide], for which the minimal effective concentration in assay [1] worked out at 0.3 µM; in assay [2] it was 18.2 µM.

On to `N#Cc1ccc(/C=C/CN2CCc3c(c4ccc(OC(F)(F)F)cc4n3C(=O)NCc3ccnc(F)c3)C2)cc1F` [Example 372, (E)-2-(3-(4-cyano-3-fluorophenyl)allyl)-N-((2-fluoropyridin-4-yl)methyl)-7-(trifluoromethoxy)-1,2,3,4-tetrahydro-5H-pyrido[4,3-b]indole-5-carboxamide], for which the minimal effective concentration was determined as 0.5 µM in assay [1] and 5.7 µM in assay [2].

Take `NC(=O)c1ccc2c3c(n(C(=O)NCc4ccnc(Cl)c4)c2c1)CCN(C/C=C/c1ccc(Cl)c(F)c1)C3` [Example 465, (E)-2-(3-(4-chloro-3-fluorophenyl)allyl)-N^5-((2-chloropyridin-4-yl)methyl)-1,2,3,4-tetrahydro-5H-pyrido[4,3-b]indole-5,7-dicarboxamide]: the minimal effective concentration in assay [1] was 3.3 µM; in assay [2], 10 µM.

With `O=C(NCc1cnc(Cl)s1)n1c2c(c3c(Cl)c(Cl)ccc31)CN(C/C=C/c1ccc(Cl)cc1)CC2` [Example 295, (E)-8,9-dichloro-2-(3-(4-chlorophenyl)allyl)-N-((2-chlorothiazol-5-yl)methyl)-1,2,3,4-tetrahydro-5H-pyrido[4,3-b]indole-5-carboxamide], the minimal effective concentration in assay [1] is greater than 100 µM; in assay [2] it was 18.2 µM.

Take `O=C(NCc1ccnc(F)c1)n1c2c(c3cc(Cl)ccc31)CN(C/C=C/c1ccc(F)cc1F)CC2` [Example 257, (E)-8-chloro-2-(3-(2,4-difluorophenyl)allyl)-N-((2-fluoropyridin-4-yl)methyl)-1,2,3,4-tetrahydro-5H-pyrido[4,3-b]indole-5-carboxamide]: the figures for the minimal effective concentration in assay [1] and in assay [2] were 0.2 µM and 5.7 µM, respectively.

For `N#Cc1ccc2c(c1)c1c(n2C(=O)NCc2ccnc(Cl)c2)CCN(C/C=C/c2ccc(Br)c(F)c2F)C1` [Example 81, (E)-2-(3-(4-bromo-2,3-difluorophenyl)allyl)-N-((2-chloropyridin-4-yl)methyl)-8-cyano-1,2,3,4-tetrahydro-5H-pyrido[4,3-b]indole-5-carboxamide], the minimal effective concentration is 0.2 µM in assay [1] and greater than 100 µM in assay [2].

For `COc1ccc(/C=C/CN2CCc3c(c4c(Cl)cccc4n3C(=O)NCc3ccnc(Cl)c3)C2)cc1` [Example 220, (E)-9-chloro-N-((2-chloropyridin-4-yl)methyl)-2-(3-(4-methoxyphenyl)allyl)-1,2,3,4-tetrahydro-5H-pyrido[4,3-b]indole-5-carboxamide], the minimal effective concentration in assay [1] turned out to be 3.3 µM; in assay [2], 10 µM.

In the case of `N#Cc1ccc2c(c1)c1c(n2C(=O)NCc2ccnc(F)c2)CCN(C/C=C/c2ccc(Br)c(F)c2)C1` [Example 105, (E)-2-(3-(4-bromo-3-fluorophenyl)allyl)-8-cyano-N-((2-fluoropyridin-4-yl)methyl)-1,2,3,4-tetrahydro-5H-pyrido[4,3-b]indole-5-carboxamide], the minimal effective concentration in assay [1] is 0.3 µM; in assay [2], greater than 100 µM.

Regarding `O=C(NCc1ccnc(Cl)c1)n1c2c(c3cc(Br)c(F)cc31)CN(C/C=C/c1ccc(Cl)cc1)CC2` [Example 197, (E)-8-bromo-2-(3-(4-chlorophenyl)allyl)-N-((2-chloropyridin-4-yl)methyl)-7-fluoro-1,2,3,4-tetrahydro-5H-pyrido[4,3-b]indole-5-carboxamide], the minimal effective concentration in assay [1] is 0.4 µM; in assay [2] it was 4.4 µM.

Consider `COc1cc(CNC(=O)n2c3c(c4ccc(C#N)cc42)CN(C/C=C/c2ccc(Cl)c(F)c2)CC3)ccn1` [Example 59, (E)-2-(3-(4-chloro-3-fluorophenyl)allyl)-7-cyano-N-((2-methoxypyridin-4-yl)methyl)-1,2,3,4-tetrahydro-5H-pyrido[4,3-b]indole-5-carboxamide], for which the results for the minimal effective concentration in assay [1] and in assay [2] were 7.7 µM and 10 µM, respectively.

For `O=C(NCc1ccnc(F)c1)n1c2c(c3cc(F)c(Cl)cc31)CN(C/C=C/c1ccc(Cl)cc1F)CC2` [Example 310, (E)-7-chloro-2-(3-(4-chloro-2-fluorophenyl)allyl)-8-fluoro-N-((2-fluoropyridin-4-yl)methyl)-1,2,3,4-tetrahydro-5H-pyrido[4,3-b]indole-5-carboxamide], the minimal effective concentration is 1.3 µM in assay [1] and 24.5 µM in assay [2].

For the compound `COc1cc(CNC(=O)n2c3c(c4cc(C#N)ccc42)CN(C/C=C/c2ccc(F)c(Cl)c2)CC3)ccn1` [Example 68, (E)-2-(3-(3-chloro-4-fluorophenyl)allyl)-8-cyano-N-((2-methoxypyridin-4-yl)methyl)-1,2,3,4-tetrahydro-5H-pyrido[4,3-b]indole-5-carboxamide], the results for the minimal effective concentration in assay [1] and in assay [2] were 0.01 µM and 0.03 µM, respectively.

On to `O=C(NCc1ccnc(Cl)c1)n1c2c(c3cc(OC(F)(F)F)c(F)cc31)CN(C/C=C/c1ccc(Cl)cc1)CC2` [Example 495, (E)-2-(3-(4-chlorophenyl)allyl)-N-((2-chloropyridin-4-yl)methyl)-7-fluoro-8-(trifluoromethoxy)-1,2,3,4-tetrahydro-5H-pyrido[4,3-b]indole-5-carboxamide], for which the minimal effective concentration in assay [1] worked out at 1 µM; in assay [2], 10 µM.

For the compound `O=C(NCc1ccnc(Cl)c1)n1c2c(c3ccc(OC(F)(F)F)cc31)CN(Cc1ccc3cc(Br)ccc3c1)CC2` [Example 364, 2-((6-bromonaphthalen-2-yl)methyl)-N-((2-chloropyridin-4-yl)methyl)-7-(trifluoromethoxy)-1,2,3,4-tetrahydro-5H-pyrido[4,3-b]indole-5-carboxamide], the minimal effective concentration in assay [1] is greater than 100 µM; in assay [2], 1.8 µM.

In the case of `Cc1cc2c(cc1OC(F)(F)F)c1c(n2C(=O)NCc2ccnc(Cl)c2)CCN(C/C=C/c2ccc(Cl)cc2)C1` [Example 494, (E)-2-(3-(4-chlorophenyl)allyl)-N-((2-chloropyridin-4-yl)methyl)-7-methyl-8-(trifluoromethoxy)-1,2,3,4-tetrahydro-5H-pyrido[4,3-b]indole-5-carboxamide], the minimal effective concentration in assay [1] was 1 µM; in assay [2] it was greater than 100 µM.

Regarding `N#Cc1ccc(/C=C/CN2CCc3c(c4cc(Cl)c(Cl)cc4n3C(=O)NCc3ccnc(Cl)c3)C2)cc1` [Example 279, (E)-7,8-dichloro-N-((2-chloropyridin-4-yl)methyl)-2-(3-(4-cyanophenyl)allyl)-1,2,3,4-tetrahydro-5H-pyrido[4,3-b]indole-5-carboxamide], the minimal effective concentration is 1.8 µM in assay [1] and greater than 100 µM in assay [2].

For the compound `O=C(NCc1ccnc(Cl)c1)n1c2c(c3ccc(OC(F)(F)F)cc31)CN(C/C=C/c1ccc(C(F)(F)F)cc1)CC2` [Example 362, (E)-N-((2-chloropyridin-4-yl)methyl)-7-(trifluoromethoxy)-2-(3-(4-(trifluoro-methyl)phenyl)allyl)-1,2,3,4-tetrahydro-5H-pyrido[4,3-b]indole-5-carboxamide], the results for the minimal effective concentration in assay [1] and in assay [2] were greater than 100 µM and 31.5 µM, respectively.
